From the CheMixHub viscosity set
± gives the uncertainty stated by the source.

Assay: xn = mol fraction of the nth substance listed
Conditions: 101 kPa

CN(C)C=O + CCCO
viscosity [mPa·s]
Conditions | 293.15 K | 298.15 K | 303.15 K | 308.15 K | 313.15 K | 318.15 K | 323.15 K
x1 = 0.4512 | – | 1.232 ± 0.31 | – | – | – | – | –
x1 = 0.5 | – | – | 0.893 ± 0.022 | – | 0.764 ± 0.019 | – | 0.655 ± 0.017
x2 = 0.1001 | – | – | 0.7821 ± 0.0067 | 0.7366 ± 0.0064 | 0.6955 ± 0.0061 | 0.6569 ± 0.0058 | 0.6217 ± 0.0055
x2 = 0.1007 | 0.9529 ± 0.02 | – | 0.8538 ± 0.018 | – | 0.7741 ± 0.016 | – | 0.7068 ± 0.015
x2 = 0.2001 | – | – | 0.8111 ± 0.007 | 0.7618 ± 0.0066 | 0.7167 ± 0.0063 | 0.6752 ± 0.006 | 0.638 ± 0.0057
x2 = 0.2026 | 0.9902 ± 0.021 | – | 0.8826 ± 0.018 | – | 0.7929 ± 0.017 | – | 0.7215 ± 0.015
x2 = 0.2518 | 1.01 ± 0.021 | – | 0.8911 ± 0.019 | – | 0.7973 ± 0.017 | – | 0.7241 ± 0.015
x2 = 0.3 | – | – | 0.8451 ± 0.0073 | 0.7912 ± 0.0069 | 0.742 ± 0.0065 | 0.698 ± 0.0062 | 0.657 ± 0.0058
x2 = 0.3548 | 1.03 ± 0.022 | – | 0.9064 ± 0.019 | – | 0.8052 ± 0.017 | – | 0.7257 ± 0.015
x2 = 0.3967 | – | – | 0.8868 ± 0.0076 | 0.8273 ± 0.0072 | 0.7741 ± 0.0068 | 0.7256 ± 0.0064 | 0.6801 ± 0.0061
x2 = 0.5002 | – | – | 0.9267 ± 0.0081 | 0.8623 ± 0.0075 | 0.8042 ± 0.0071 | 0.7517 ± 0.0067 | 0.7022 ± 0.0063
x2 = 0.5007 | 1.109 ± 0.023 | – | 0.9588 ± 0.02 | – | 0.84 ± 0.018 | – | 0.7422 ± 0.016
x2 = 0.5008 | 1.127 ± 0.024 | – | 0.977 ± 0.021 | – | 0.8569 ± 0.018 | – | 0.7593 ± 0.016
x2 = 0.5981 | – | – | – | – | 0.8728 ± 0.018 | – | –
x2 = 0.5982 | 1.175 ± 0.025 | – | 1.01 ± 0.021 | – | – | – | 0.7643 ± 0.016
x2 = 0.6 | – | – | 0.9903 ± 0.0087 | 0.9169 ± 0.008 | 0.8505 ± 0.0075 | 0.7912 ± 0.007 | 0.7367 ± 0.0066
x2 = 0.6981 | 1.315 ± 0.028 | – | 1.112 ± 0.023 | – | 0.9521 ± 0.02 | – | 0.8239 ± 0.017
x2 = 0.7001 | – | – | 1.076 ± 0.0096 | 0.9904 ± 0.0087 | 0.9148 ± 0.0081 | 0.8466 ± 0.0076 | 0.784 ± 0.007
x2 = 0.75 | 1.368 ± 0.029 | – | 1.146 ± 0.024 | – | 0.9688 ± 0.021 | – | 0.8261 ± 0.017
x2 = 0.7989 | 1.476 ± 0.031 | – | 1.231 ± 0.026 | – | 1.037 ± 0.022 | – | 0.8829 ± 0.019
x2 = 0.8001 | – | – | 1.204 ± 0.011 | 1.1 ± 0.0098 | 1.008 ± 0.009 | 0.9264 ± 0.0083 | 0.8521 ± 0.0076
x2 = 0.8981 | 1.734 ± 0.037 | – | 1.412 ± 0.03 | – | 1.164 ± 0.025 | – | 0.9688 ± 0.021
x2 = 0.9001 | – | – | 1.403 ± 0.013 | 1.272 ± 0.011 | 1.153 ± 0.01 | 1.074 ± 0.0097 | 0.955 ± 0.0089
